Marks after values point to notes of the source that are not given here.
What was measured:
[1] = Procedure, shortened: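 Test compounds formulated in ethanol:Cremophor EL:saline (5:5:90), vehicle alone as control, in HCT-116 subcutaneous xenografts in female Balb/c nudes (6/group, start 60–150 mm^3). Weight measured three times weekly, tumour weight at end; unpaired t-test on Mean±SEM data.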
[2] = system: HCT-116 colon cancer xenografts; test: Tumor growth inhibition of HCT-116 colon cancer xenografts in tumor-bearing nude mice (tumor volume, TGI %, RTV, T/C %); assay type: in vivo, Balb/c Nude mice; details: G10-G16 groups, single IP 400 mg/kg
Procedure, shortened: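 Tumors in HCT-116-inoculated nude mice were sized three times weekly by diameter, with volume V=3/4π(D/2)^3. Significance set at P<0.05.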

ICR mice = test: in vivo; details: female ICR mice; single-dose ip
Experimental: This experiment was to investigate the toxic effects of single-dose intraperitoneal administration on ICR mice and determine the maximum tolerated dose (MTD) of each subject. Maximum tolerated dose (MTD) refers to the dose that may not cause an animal to die, may not cause the animal to suffer weight loss exceeding 10% (compared with Day 0), or may not produce significant side effects.
The corresponding amount of test substance was taken in a 5 mL glass tube and dissolved in ethanol with a 5 mm magnetic stirrer for stirring. After dissolving completely, Cremophor EL was added with continuous stirring. The marked amount of saline was added and mixed evenly before use. The volume ratio of ethanol, Cremophor EL, and physiological saline was 5:5:90.
Varieties and lines: ICR mice; level: SPF; sex: female.
Method of administration: ip. The dose was reduced in case of animal death, till an animal survived; the dose was increased in case of no animal death; the test was ended when the animals survived normally at the given high dose. Finally, the MTD of the mice on the test substances was determined according to the test results. The animals were observed continuously for 7 days after acute administration.
During the experiment, all animals were under detailed and continuous clinical observation for […], twice a day (10:00 am, 16:00 pm) after administration. The observation included but not limited to: skin, hair, ear, nose, mouth, chest, abdomen, external genitalia, limbs and feet, respiratory and circulatory system, autonomic effects (such as salivation), nervous system (such as tremor, convulsions, stress response and abnormal behavior).
The body of animals was weighed before administration, and then weighed and recorded at the same time each day.
The observation results, animal body weight, and animal survival after one week of administration were recorded in detail every day.

[3] = Day 1, G10-G16 groups, single IP 400 mg/kg, Mean±SEM
[4] = Day 2, G10-G16 groups, single IP 400 mg/kg, Mean±SEM
[5] = Day 4, G10-G16 groups, single IP 400 mg/kg, Mean±SEM
[6] = Day 7, G10-G16 groups, single IP 400 mg/kg, Mean±SEM
[7] = Day 9, G10-G16 groups, single IP 400 mg/kg, Mean±SEM
[8] = Day 11, G10-G16 groups, single IP 400 mg/kg, Mean±SEM
[9] = Day 14, G10-G16 groups, single IP 400 mg/kg, Mean±SEM
[10] = Day 16, G10-G16 groups, single IP 400 mg/kg, Mean±SEM
[11] = Day 18, G10-G16 groups, single IP 400 mg/kg, Mean±SEM
[12] = Day 21, G10-G16 groups, single IP 400 mg/kg, Mean±SEM
[13] = Day 23, G10-G16 groups, single IP 400 mg/kg, Mean±SEM
[14] = Day 25, G10-G16 groups, single IP 400 mg/kg, Mean±SEM
[15] = Day 28, G10-G16 groups, single IP 400 mg/kg, Mean±SEM
[16] = Day 30, G10-G16 groups, single IP 400 mg/kg, Mean±SEM

Q: Which results are given for `CCCCOC(=O)Nc1nc(=O)n(C2OC(COC(=O)COc3nc(Cl)c(Cl)cc3Cl)C(O)C2(F)F)cc1I` (centres unmarked) [Compound G11]?
A: Weight change rate, Day 0 ([1]; Day 0, G10-G16 groups, single IP 400 mg/kg): 0.00%; Weight of mice, Day 0 ([1]; Day 0, G10-G16 groups, single IP 400 mg/kg, Mean±SEM): 20.48 ± 0.27 g; Weight change rate, Day 1 [1, 3]: −5.41 ± 1.27 %; Weight of mice, Day 1 [1, 3]: 19.38 ± 0.43 g; Weight change rate, Day 2 [1, 4]: −6.03 ± 0.57 %; Weight of mice, Day 2 [1, 4]: 19.25 ± 0.31 g; Weight change rate, Day 4 [1, 5]: −2.00 ± 0.76%; Weight of mice, Day 4 [1, 5]: 20.07 ± 0.18 g; Weight change rate, Day 7 [1, 6]: −3.58 ± 1.49%; Weight of mice, Day 7 [1, 6]: 19.73 ± 0.17 g; Weight change rate, Day 9 [1, 7]: −0.18 ± 1.13%; Weight of mice, Day 9 [1, 7]: 20.43 ± 0.14 g; Weight change rate, Day 11 [1, 8]: 1.05 ± 1.44%; Weight of mice, Day 11 [1, 8]: 20.68 ± 0.20 g; Weight change rate, Day 14 [1, 9]: −1.81 ± 2.2%; Weight of mice, Day 14 [1, 9]: 20.10 ± 0.40 g; Weight change rate, Day 16 [1, 10]: 0.01 ± 2.83%; Weight of mice, Day 16 [1, 10]: 20.47 ± 0.49 g; Weight change rate, Day 18 [1, 11]: 1.66 ± 3.62%; Weight of mice, Day 18 [1, 11]: 20.80 ± 0.65 g; Weight change rate, Day 21 [1, 12]: −0.53 ± 3.44%; Weight of mice, Day 21 [1, 12]: 20.35 ± 0.59 g; Day 22 Mortality ([1]; Day 22, single IP dose (mg/kg)): 0%; Weight change rate, Day 23 [1, 13]: −1.07 ± 3.55%; Weight of mice, Day 23 [1, 13]: 20.23 ± 0.57 g; Weight change rate, Day 25 [1, 14]: −0.06 ± 3.97%; Weight of mice, Day 25 [1, 14]: 20.43 ± 0.63 g; Weight change rate, Day 28 [1, 15]: −1.11 ± 3.89%; Weight of mice, Day 28 [1, 15]: 20.22 ± 0.61 g; Weight change rate, Day 30 [1, 16]: 3.01 ± 7.70%; Weight of mice, Day 30 [1, 16]: 21.00 ± 1.02 g; clinical symptoms ([1]; after single IP dose, compared with model control group): no significant differences in clinical symptoms; Day 0 (RTV) ([2]; Day 0): 1.00; Tumor volume, Day 0 ([2]; Day 0, Mean±SEM): 71.46 ± 18.69 mm^3; Day 1 (TGI %) ([2]; Day 1): 58.06%; Day 1 (RTV) ([2]; Day 1, Mean±SEM): 1.00 ± 0.13; Tumor volume, Day 1 ([2]; Day 1, Mean±SEM): 75.71 ± 22.24** mm^3; Day 2 (TGI %) ([2]; Day 2): 58.57%; Day 2 (RTV) ([2]; Day 2, Mean±SEM): 1.14 ± 0.16; Tumor volume, Day 2 ([2]; Day 2, Mean±SEM): 91.91 ± 29.38** mm^3; Day 4 (TGI %) ([2]; Day 4): 56.33%; Day 4 (RTV) ([2]; Day 4, Mean±SEM): 1.56 ± 0.24; Tumor volume, Day 4 ([2]; Day 4, Mean±SEM): 129.69 ± 43.49** mm^3; Day 7 (TGI %) ([2]; Day 7): 53.56%; Day 7 (RTV) ([2]; Day 7, Mean±SEM): 2.68 ± 0.29; Tumor volume, Day 7 ([2]; Day 7, Mean±SEM): 200.84 ± 57.86* mm^3; Day 9 (TGI %) ([2]; Day 9): 35.19%; Day 9 (RTV) ([2]; Day 9, Mean±SEM): 5.21 ± 0.68; Tumor volume, Day 9 ([2]; Day 9, Mean±SEM): 382.62 ± 103.38 mm^3; Day 11 (TGI %) ([2]; Day 11): 49.22%; Day 11 (RTV) ([2]; Day 11, Mean±SEM): 6.61 ± 0.62; Tumor volume, Day 11 ([2]; Day 11, Mean±SEM): 495.68 ± 140.53* mm^3; Day 14 (TGI %) ([2]; Day 14): 41.98%; Day 14 (RTV) ([2]; Day 14, Mean±SEM): 12.40 ± 1.29; Tumor volume, Day 14 ([2]; Day 14, Mean±SEM): 835.57 ± 194.90* mm^3; Day 16 (TGI %) ([2]; Day 16): 41.43%; Day 16 (RTV) ([2]; Day 16, Mean±SEM): 16.20 ± 1.72; Tumor volume, Day 16 ([2]; Day 16, Mean±SEM): 1060.78 ± 231.28* mm^3; Day 18 (TGI %) ([2]; Day 18): 36.63%; Day 18 (RTV) ([2]; Day 18, Mean±SEM): 20.33 ± 2.96; Tumor volume, Day 18 ([2]; Day 18, Mean±SEM): 1266.27 ± 242.09* mm^3; Day 21 (TGI %) ([2]; Day 21): 32.98%; Day 21 (RTV) ([2]; Day 21, Mean±SEM): 26.21 ± 3.72; Tumor volume, Day 21 ([2]; Day 21, Mean±SEM): 1638.64 ± 312.92 mm^3; Day 23 (TGI %) ([2]; Day 23): 28.91%; Day 23 (RTV) ([2]; Day 23, Mean±SEM): 27.62 ± 4.39; Tumor volume, Day 23 ([2]; Day 23, Mean±SEM): 1678.97 ± 300.64 mm^3; Day 25 (TGI %) ([2]; Day 25): 28.29%; Day 25 (RTV) ([2]; Day 25, Mean±SEM): 30.73 ± 4.91; Tumor volume, Day 25 ([2]; Day 25, Mean±SEM): 1851.89 ± 322.59 mm^3; Day 28 (TGI %) ([2]; Day 28): 20.94%; Day 28 (RTV) ([2]; Day 28, Mean±SEM): 36.20 ± 6.28; Tumor volume, Day 28 ([2]; Day 28, Mean±SEM): 2126.03 ± 345.51 mm^3; Day 30 (TGI %) ([2]; Day 30): 39.43%; Day 30 (RTV) ([2]; Day 30, Mean±SEM): 56.36 ± 6.99; Tumor volume, Day 30 ([2]; Day 30, Mean±SEM): 1699.56 ± 350.73 mm^3; dose that could be tolerated (maximum tolerated dose, MTD) (ICR mice): 400 mg/kg

— US10174067B2, “Type of cytidine derivative and application thereof” (priority 2014, dated 2019)
